Results from paper PMC7230911, “Meroterpenoids from the Brown Alga Cystoseira usneoides as Potential Anti-Inflammatory and Lung Anticancer Agents” (Marine Drugs, 2020).
Where two headings read alike, the source gives them in different places.

What was measured:
[1] = system: A549 cells; experiment: Cell cycle analysis of A549 cells by flow cytometry; type: cell-based, human; conditions: 0.2 μg/mL, 24 h, positive control
Experimental: We next investigated whether the treatment with AMTs 1–8 caused any cell cycle-related event, which inhibit the viability of A549 cell line. Thus, the cells were treated for 24 h with the AMTs at concentrations of IC50 (Table 1), or with colchicine (at 0.2 μg/mL) as the positive control, and then subjected to flow cytometry analysis to evaluate the distribution of cells in the different phases of the cell cycle (Figure 5A).
Figure 5 Effects of meroterpenoids 1–8 on cell cycle distribution of A549 cells. Cells were incubated with IC50 doses of the compounds for 24 h. (A) Cells were harvested to measure the cell cycle distribution by flow cytometry. (B) Quantitative analysis of cell cycle distribution after treatment. Data represent mean ±SE from three independent experiments. * p < 0.05, ** p < 0.01, and *** p < 0.001 compared with the untreated group (control).
For cell cycle analysis by flow cytometry, A549 cells were seeded at 1 × 10^6 cells/well in 6-well plates and incubated for 24 h followed by treatment with the AMTs, at concentration of IC50, and further incubation for 24 h. Colchicine (final concentration of 0.2 μg/mL) was used as positive control. Cells were harvested after trypsinization and washed once with PBS. Then, the cells were centrifuged at 1500 rpm for 5 min (25 °C), the pellet was fixed with 1 mL of ice-cold 70% ethanol, and the samples were stored at −4 °C overnight. Then the cells were washed with PBS and incubated in the darkness with PBS containing 5 mg/mL of RNase A for 48 h at 4 °C. Subsequently, 50 µL of propidium iodide (0.1 mg/mL) was added and the cells were incubated for 1 h at 4 °C. The relative DNA content per cell was analyzed using a Beckman Coulter Cytomics FC 500 MPL (Beckman Coulter Inc, San Diego, CA, USA). The data acquisition was performed with the DML program. The analysis of the acquired data was performed with the CXP cytometer.

[2] = system: A549 human cancer cell line; conditions: cited from earlier work
[3] = system: several human cancer cell lines, including A549 cells; parameters: method as in PMID 19271727, PMID 22920243; conditions: mean over several human cancer cell lines; cited from earlier work
[4] = system: LPS-stimulated RAW264.7 macrophages; conditions: cited from earlier work
[5] = system: several human cancer cell lines, including A549 cell line; parameters: method as in PMID 22775218; conditions: cited from earlier work

Molecule: COc1cc2c(c(OC)c1OC)-c1ccc(OC)c(=O)cc1[C@@H](NC(C)=O)CC2 [colchicine, reference compound]
- cells arrested in G2/M phase [1]: 89.88%

Molecule: CC(C)[C@@H]1CC=C[C@H]2[C@H]3[C@@](C)(C=CC(=O)[C@@]3(C)O)CC[C@]12CBr [sphaerococcenol A]
- IC50 ([2]; read-out: IC50 growth of A549 cells): 3.7 µM

Molecule: C=C(C)[C@@H]1CCC(C)(O)[C@H](Br)CC[C@@]2(C)[C@H](Cc3cc(ccc3O)C(=O)O1)C(C)=CC[C@@H]2Br (stereo partly shown) [bromophycolide N]
- IC50 [3]: 8.6 µM

Molecule: C=C1CC[C@H](Br)[C@@]2(C)CC[C@@H](Br)[C@@]3(C)CC[C@H](OC(=O)c4ccc(O)c(c4)C[C@H]12)C(C)(C)O3 [bromophycolide P]
- IC50 [3]: 7.9 µM

Molecule: nerogioltriol
- activation of NFκB and production of NO, TNF-α and COX-2 (in words) [4]: inhibit

Molecule: C=C(C)[C@@H]1CCC(C)(O)[C@H](Br)CC[C@@]2(C)C(=C(C)CC[C@@H]2Br)Cc2cc(ccc2O)C(=O)O1 (stereo partly shown) [bromophycolide M]
- IC50 [3]: 3.1 µM

Molecule: CC1=C2Cc3cc(ccc3O)C(=O)O[C@H]3CC[C@@](C)(OC3(C)C)[C@H](Br)CC[C@]2(C)[C@@H](Br)CC1 [bromophycolide Q]
- IC50 [3]: 2 µM

Molecule: 5β-hydroxypalisadin B
- production of NO, TNF-α, IL-6, IL-1β and COX-2, iNOS expression (in words) [4]: inhibit

Molecule: 5β-hydroxyaplysin
- IC50 ([2]; read-out: IC50 towards A549): 35.3 µM

Molecule: CC1=CC[C@H](Br)[C@@]2(C)CC[C@@H](Br)C(C)(O)CC[C@@H](C(C)(C)Br)OC(=O)c3ccc(O)c(c3)C[C@H]12 (stereo partly shown) [bromophycolide O]
- IC50 [3]: 9.7 µM

Molecule: C=C1C[C@H](O)[C@H](Br)C(C)(C)[C@@]12CCC(C)=C(Cl)C2 [elatol]
- IC50 ([2]; read-out: IC50 towards A549): 4.8 µM
- cell cycle effect (in words) [5]: cell cycle arrest in the G1 and the sub-G1 phases

Molecule: bromophycoic acid D
- IC50 [3]: 6.8 µM
